Tests used:
Panc-2H4 cells = test: Human Panc-2H4 insulin suppression assay; format: cell-based
Text: (§1) Two different assays for “classical” sstr2 functions were adopted: (1) cultured foetal rat pituitary cells secreted growth hormone which is inhibited by sstr2 agonists in a dose-dependent fashion and (2) selected glucose-sensitive sub-clones of the human Panc-1 cell line secrete insulin which is inhibited by sstr2 agonists in a dose-dependent fashion.
Glucose-sensitive sub-clones of the human Panc-1, a cell line derived from a pleiomorphic epithelioid carcinoma of the exocrine pancreas, were obtained essentially as described by Hamil et al. (2008) Biomed. Sci. Instrum. 44:441-6. Briefly, Panc-1 cells were subcultured in 24 well plates, and the medium was supplemented with an additional 5% glucose. […] The resulting sub-lines were then tested for glucose sensitivity by preparing wells of a 96-well plate (5×10^4 cells per well) which were then exposed to cultured medium containing a range of glucose concentrations (low glucose DMEM, DMEM, DMEM+1% glucose, DMEM+2.5% glucose and DMEM+5% glucose). After 24 hrs incubation, the conditioned medium was collected and assayed for insulin secretion by ELISA (Linco; cat# EZHI-14K) in accordance with the manufacturer's instructions. […] Further 96 well plates were prepared using Panc-2H4 (5×10^4 cells per well) in DMEM. After 24 hrs, the medium was switched to DMEM+5% glucose containing various test agents at various concentrations (triplicate wells per condition). After a further 24 hrs, the conditioned medium was harvested and the concentration of insulin was determined by ELISA as described above.
(§2) Results were reported as the mean SD, expressed as the fold change from cells in the presence of vehicle only.

[1] = system: rat peripheral blood leukocytes; test: Rat chemokine-induced PBMC migration assay; format: cell-based
Protocol: Similarly, where human Panc-2H4 cells are used to determine the effect of agents on classical sstr2 targets, the result is compared with the effect of the same agents on chemokine-induced migration of human THP-1 cells. […] For this reason, the ratio of “classical” to “BSCI” activity in Table 3 is calculated separately for rat and human.

TNF-alpha = test: Sub-lethal endotoxemia model, serum TNF-alpha after LPS; format: in vivo, mouse; conditions: dose-dependent; BN83250 s.c., valerolactam oral gavage
Protocol: We selected the sub-lethal endotoxemia model in mouse, because this has been well characterised in our laboratory (see for example Fox et al. (2002) J. Med. Chem. 45:360-70; Fox et al. (2005) J. Med. Chem. 48:867-74). The extent of systemic inflammation in response to a single intraperitoneal injection of bacterial lipopolysaccharide (LPS) can be estimated by measuring serum TNF-alpha 2 hours post challenge.
Methods: Mice (CD1 strain; adult males; 6 per group) were treated with BSCI (in an appropriate vehicle) or with vehicle alone by an appropriate route. […] Simultaneously, one set of mice at each BSCI concentration received BIM 23627 at 4 mg/animal (120 mg/kg) by sub-cutaneous injection (a treatment condition known to suppress classical sstr2-mediated signalling, such as GH release, in rats; Tulipano et al. (2002) 143:1218-24). Between 30 mins and 1 hour after dosing (a period when a maximal plasma concentration of BSCI has been achieved), the inflammatory challenge was elicited by intraperitoneal injection of 750 μg of LPS (Sigma; L4130 lot#024K4077; 900,000 EU/mg).
After a further 2 hours, the animals were sacrificed by CO2 asphyxiation, and blood was drawn by cardiac puncture. Serum was prepared by conventional methods, and the level of TNF-alpha in serum was measured using an ELISA (R&D Systems; Murine Quantikine code# MTA00) performed in accordance with the manufacturer's instructions.

Jurkat-D3B cells = test: SDF-1α induced migration of Jurkat-D3B cells expressing sstr2; format: cell-based, human
Protocol: Methods: Total mRNA was prepared from Panc-1 cells (a human pancreas cell line which is well known to express high levels of sstr2) using the RNAqueous 4PCR kit (Ambion, Cat code #1914) in accordance with the manufacturer's instructions. The mRNA was then reverse transcribed (using the RETROscript kit; Ambio) to yield a cDNA preparation. A full length cDNA of the sstr2 gene was then obtained by PCR (using a Peltier PTC-200 thermal cycler using the following cycle times and conditions: 94° C. for 2 min, followed by 30 cycles of 94° C., for 30 sec, 55° C. for 30 sec, 72° C. for 1 min and finally 72° C. for 10 min), and isolated by preparative gel electrophoresis. The sequence of the sstr2 cDNA was confirmed by sequencing. The sstr2 cDNA was treated with EcoRI and Xhol to generate sticky ends, which allowed directional cloning into the polylinker of the plasmid pcDNA3.1+ (Invitrogen) followed by ligation ([…] ligation reactions were run with 400 T4 DNA ligase (New England Biolabs) and the maximal amounts of DNA with an insert:plasmid ratio of 3:1 in ligase buffer incubated overnight at 13° C.). […]
A number of individual cell lines were obtained in this way, which expressed significant levels of sstr2 on the cell surface, detected by flow cytometry using the human-sstr2 antibody (Sigma, 50694; see Example 3 for details of the flow cytometry protocol used). […]

fetal rat pituicytes = test: Rat pituicyte GH suppression assay; format: cell-based; conditions: Table 3; suppression compared to vehicle
Text: as §1
Methods: Cultures of fetal rat pituicytes were established exactly as previously described (Murray et al. (2004) J. Clin. Endocrinol. Metab. 89:3027-32) by enzymatic dispersion. After 48 hrs in low glucose DMEM plus 10% FCS, cells in 48 well plates (5×10^4 cells per well) were washed for 4 hrs in serum-free DMEM and then incubated with test agents at various concentrations for a further 24 hrs in serum-free DMEM. At the end of this period, the conditioned medium was harvested, any cell debris removed by centrifugation and assayed for […] using a commercially available ELISA (Linco; cat# EZRMGH-45K) in accordance with the manufacturer's instructions.
as §2

THP-1 cells = test: MCP-1 induced THP-1 cell migration (Transwell/ChemoTx)
Protocol: Leukocyte migration was measured using the 96-well format micro Transwell® assay system from Neuroprobe (Gaithersburg, Md., USA). In principle, this assay consists of two chambers separated by a porous membrane. The chemoattractant is placed in the lower compartment and the cells are placed in the upper compartment.
First, the cell suspension to be placed in the upper compartment was prepared. The THP-1 cells were pelleted by centrifugation (770×g; 4 mins) and washed with Geys Balanced Salt Solution with 1 mg/ml BSA (GBSS+BSA). This wash was then repeated, and the cells re-pelleted before being resuspended in a small volume of GBSS+BSA for counting, for example using a standard haemocytometer.
This ensured that there were 100,000 THP-1 cells in each 25 μl of the solution to be placed in the upper chamber of the plate.
To the third pot, GBSS+BSA plus vehicle as appropriate was added so that the volumes in three pots are equal, acting as a control.
Next, the chemoattractant solution to be placed in the lower compartment was prepared. […] This solution was divided into three pots, as for the cell suspension. To one pot, the BSCI was added to the same final concentration as was added to the cell suspension, in the second pot the BSCI and the sstr2 antagonist were both added at the same concentration as previously added to the cell suspension, while to the remaining pot GBSS+BSA plus vehicle as appropriate was added so that the volumes in the three pots were equal.
Once the chemoattractant solutions for the lower wells and cell solutions for the upper chambers were prepared, the migration chamber was assembled. 29 μl of the appropriate chemoattractant solution was placed into the lower well of the chamber. Assays were performed with at least triplicate determinations of each condition. Once all the lower chambers were filled, the porous membrane was applied to the chamber in accordance with the manufacturer's instructions. Finally, 25 μl of the appropriate cell solution was applied to each upper chamber. A plastic lid was placed over the entire apparatus to prevent evaporation.
The assembled chamber was incubated at 37° C., 5% CO2, for 2 hours.
At the end of the incubation, the liquid cell suspension was gently removed from the upper chamber, 20 μl of ice-cold 20 mM EDTA in PBS was added to the upper chamber, and the apparatus was incubated at 4° C. for 15 mins. This procedure caused any cells adhering to the underside of the membrane to fall into the lower chamber.
After this incubation the filter was carefully flushed with GBSS+BSA to wash off the EDTA, and then the filter was removed.
The number of cells migrated into the lower chamber under each condition can then be determined by a number of methods, including direct counting, labelling with fluorescent or radioactive markers or through the use of a vital dye. Typically, we utilised the vital dye MTT. 3 μl of stock MTT solution were added to each well, and then the plate was incubated at 37° C. for 1-2 hours during which time dehydrogenase enzymes within the cells converted the soluble MTT to an insoluble blue formazan product that could be quantified spectrophotometrically.
In parallel, an 8-point standard curve was set up. Starting with the number of cells added to each upper chamber (100,000) and going down in 2-fold serial dilutions in GBSS+BSA, the cells were added to a plate in 25 with 3 μl of MTT stock solution added. The standard curve plate was incubated along side the migration plate. At the end of this incubation, the liquid was carefully removed from the lower chambers, taking care not to disturb the precipitated formazan product.
The MCP-1 stimulated migration was determined by subtracting the average number of cells that reached the lower compartment in wells where no MCP-1 was added from the average number of cells that reached the lower compartment where MCP-1 was present at 25 ng/ml.

CC(C)(C)C(=O)N[C@H]1CCCNC1=O [Valerolactam, (S)-3-(2′2′-dimethylpropionoylamino)-tetrahydropyridin-2-one]
EC50 (Panc-2H4 cells; Table 3, read-out: Human Panc-2H4 insulin suppression assay ED50): > 1000 nM | Human Panc-2H4 insulin suppression assay Max effect (Panc-2H4 cells; Table 3, suppression compared to vehicle): <10% | inhibition of insulin secretion by Panc-2H4 (Panc-2H4 cells; highest concentrations tested): None of these agents inhibited insulin secretion | “Classical”:“BSCI” potency ratio, Rat ([1]; PBMC migration ED50 versus pituicyte GH ED50): 0.0009 | Rat chemokine-induced PBMC migration assay Max effect ([1]; Table 3): 100% | inhibition of LPS-induced systemic inflammation (TNF-alpha): dramatically inhibited | sensitivity of Jurkat-D3B migration (Jurkat-D3B cells): sensitive to inhibition | Rat pituicyte GH suppression assay Max effect (fetal rat pituicytes): 61% | potency relative to BN83253 (THP-1 cells; MCP-1 induced THP-1 migration, FIG. 5 versus FIG. 4): 20-50 fold | “Classical”:“BSCI” potency ratio, Human (THP-1 cells; THP-1 migration ED50 versus Panc-2H4 insulin ED50): <0.00005 | Human chemokine-induced THP-1 migration assay Max effect (THP-1 cells; Table 3): 100%

Source: patent US20120115742A1, “METHODS FOR IDENTIFICATION” (Cambridge Enterprise Limited, priority 2009, published 2012)
